The record followed here is patent publication US20100311643A1, “USE OF GLP-1 AS A THERAPEUTIC AGENT” (priority 2007, published 2010).

For one series, the system named is HIV-1IIIB. The series is described as follows: HIV-1 antiviral assay (CPE reduction, MTS staining). It counts as cell-based. The note with it: test peptide 10 micrograms per ml; 6 days post-infection; triplicate.
A short description of series [1]: in vitro. Particulars: human, MRC-5 cells (embryonal lung fibroblasts).
Another series concerns Streptococcus pneumoniae. It is filed as cell-based. Particulars: 5 micrograms per ml.
A further series concerns Pseudomonas aeruginosa. It is filed as cell-based. The note with it: 5 micrograms per ml.
A further series concerns MRSA. Particulars: 5 micrograms per ml.
The nature of series [2]: Cytotoxicity in the HBV assay (dye uptake cell viability). Particulars: human.
Series [3] can be described thus: in vitro. The note with it: human, CEM-SS cells (uninfected, cells plus peptide only).

As for `Cc1cn([C@H]2C[C@H](N=[N+]=[N-])[C@@H](CO)O2)c(=O)[nH]c1=O` [AZT], the “% CPE reduction in HIV-1 infected CEM-SS cells” value in the series on HIV-1IIIB is 99%.
Broadly, the viability is a read-out of living cells in per cent, often relative to untreated cells. Usually % inhibition stands for the relative decrease from the control value, in per cent. Low readings indicate little suppression, high ones strong suppression. On to `CC[C@H](C)[C@H](NC(=O)[C@H](Cc1ccccc1)NC(=O)[C@H](CCC(=O)O)NC(=O)[C@H](CCCCN)NC(=O)[C@H](C)NC(=O)[C@H](C)NC(=O)[C@H](CCC(N)=O)NC(=O)CNC(=O)[C@H](CCC(=O)O)NC(=O)[C@H](CC(C)C)NC(=O)[C@H](Cc1ccc(O)cc1)NC(=O)[C@H](CO)NC(=O)[C@H](CO)NC(=O)[C@@H](NC(=O)[C@H](CC(=O)O)NC(=O)[C@H](CO)NC(=O)[C@@H](NC(=O)[C@H](Cc1ccccc1)NC(=O)[C@@H](NC(=O)CNC(=O)[C@H](CCC(=O)O)NC(=O)[C@H](C)NC(=O)[C@H](Cc1c[nH]cn1)NC(=O)[C@H](CCCNC(=N)N)NC(=O)[C@H](CCC(=O)O)NC(=O)[C@H](Cc1ccccc1)NC(=O)[C@H](CCC(=O)O)NC(=O)[C@H](CC(=O)O)NC(=O)[C@@H](N)Cc1c[nH]cn1)[C@@H](C)O)[C@@H](C)O)C(C)C)C(=O)N[C@@H](C)C(=O)N[C@@H](Cc1c[nH]c2ccccc12)C(=O)N[C@@H](CC(C)C)C(=O)N[C@H](C(=O)N[C@@H](CCCCN)C(=O)NCC(=O)N[C@@H](CCCNC(=N)N)C(=O)NCC(=O)O)C(C)C` [GLP-1], for which the viability at 144 h in “in vitro [1]” was determined as 100%. Further, the “% inhibition” value in the series on Streptococcus pneumoniae, in the series on Pseudomonas aeruginosa and in the series with MRSA was 0.0% each time. In series [2], the viability at 144 h, 10 micrograms per ml was 95.8%. The viability at 10 micrograms per ml in “in vitro [3]” was 100%.
